Here are results for 10 molecules from patent US8735322B2, “Herbicides” (Syngenta Limited, priority 2008, dated 2014).

Molecules are shown by their SMILES.

Holding throughout (assay type): in vivo
Test [1] concerns Avena fatua (AVEFA). Put plainly: Example A post-emergence herbicidal activity, glasshouse pot test. The conditions noted are these: 360 h, rate 500 g/ha, evaluated 15 days after spraying, read-out: herbicidal damage AVEFA (100=total damage to plant; 0=no damage to plant). The method, then: (§1) Seeds of a variety of test species were sown in standard soil in pots. After cultivation for one day (pre-emergence) or after 10 days cultivation (post-emergence) under controlled conditions in a glasshouse, the plants were sprayed with an aqueous spray solution derived from the formulation of the technical active ingredient in 0.6 ml acetone and 45 ml formulation solution containing 10.6% Emulsogen EL (Registry number 61791-12-6), 42.2% N-methylpyrrolidone, 42.2% dipropylene glycol monomethyl ether (Registry number 34590-94-8) and 0.2% X-77 (Registry number 11097-66-8). The test plants were then grown in a greenhouse under optimum conditions until, 15 days later for post-emergence and 20 days for pre-emergence, the test was evaluated (100=total damage to plant; 0=no damage to plant). Alopecurus myosuroides (ALOMY), Avena fatua (AVEFA), Lolium perenne (LOLPE), Setaria faberi (SETFA), Digitaria sanguinalis (DIGSA), Echinochloa crus-galli (ECHCG) Post Emergency Activity

In test [2] the test system is Setaria faberi (SETFA). The test is described as above. The conditions noted are these: 360 h, rate 500 g/ha, evaluated 15 days after spraying, read-out: herbicidal damage SETFA (100=total damage to plant; 0=no damage to plant). The method, then: as §1
In test [3] the test system is Lolium perenne (LOLPE). The description is as above. Particulars: 360 h, rate 500 g/ha, evaluated 15 days after spraying, read-out: herbicidal damage LOLPE (100=total damage to plant; 0=no damage to plant). The method, then:
as §1

For test [4], the system named is Digitaria sanguinalis (DIGSA). The description is as above. The conditions noted are these: 360 h, rate 500 g/ha, evaluated 15 days after spraying, read-out: herbicidal damage DIGSA (100=total damage to plant; 0=no damage to plant). The method, then: as §1
The test system of test [5] is Echinochloa crus-galli (ECHCG). The test is described as above. Particulars: 360 h, rate 500 g/ha, evaluated 15 days after spraying, read-out: herbicidal damage ECHCG (100=total damage to plant; 0=no damage to plant). Here is the method: as §1
The test system of test [6] is Alopecurus myosuroides (ALOMY). Described as above. Particulars: 360 h, rate 500 g/ha, evaluated 15 days after spraying, read-out: herbicidal damage ALOMY (100=total damage to plant; 0=no damage to plant). Here is the method:
as §1

In test [7] the test system is Avena fatua (AVEFA). Put plainly: Example A pre-emergence herbicidal activity, glasshouse pot test. Particulars: 480 h, rate 500 g/ha, evaluated 20 days later, 100=total damage to plant, 0=no damage to plant. Here is the method:
as §1, with “Pre-Emergence” for “Post Emergency”

Test [8] has as its system Setaria faberi (SETFA). The description is as above. Particulars: 480 h, rate 500 g/ha, evaluated 20 days later, 100=total damage to plant, 0=no damage to plant. The method, then: as §1, with “Pre-Emergence” for “Post Emergency”
The test system of test [9] is Lolium perenne (LOLPE). Described as above. The conditions noted are these: 480 h, rate 500 g/ha, evaluated 20 days later, 100=total damage to plant, 0=no damage to plant. Here is the method: as §1, with “Pre-Emergence” for “Post Emergency”
For test [10], the system named is Digitaria sanguinalis (DIGSA). The test is described as above. Particulars: 480 h, rate 500 g/ha, evaluated 20 days later, 100=total damage to plant, 0=no damage to plant. Here is the method: as §1, with “Pre-Emergence” for “Post Emergency”
In test [11] the test system is Echinochloa crus-galli (ECHCG). The description is as above. Particulars: 480 h, rate 500 g/ha, evaluated 20 days later, 100=total damage to plant, 0=no damage to plant. Here is the method:
as §1, with “Pre-Emergence” for “Post Emergency”

Test [12] deals with Alopecurus myosuroides (ALOMY). The description is as above. The conditions noted are these: 480 h, rate 500 g/ha, evaluated 20 days later, 100=total damage to plant, 0=no damage to plant. The method, then: as §1, with “Pre-Emergence” for “Post Emergency”

As for `Cc1ccc(-c2ccc(Cl)cc2)cc1C1=C(O)CC(CC2CCOC2)CC1=O` (stereo not shown) [Compound A-2], the pest or weed control at 500 g/ha amounted to 40% in the test with Avena fatua (AVEFA) [1]; 90% in the test with Setaria faberi (SETFA) [2]; 50% with Lolium perenne (LOLPE) [3]; 90% in test [4]; 100% in [5]; 70% in [6]. Further, the pest or weed control at 500 g/ha with Avena fatua (AVEFA) [7] stood at 40%; in the test on Setaria faberi (SETFA) [8] it was 60%; with Lolium perenne (LOLPE) [9], 10%; in test [10], 50%; in test [11], 100%; in [12], 20%.

Take `CCc1cc(C)cc(CC)c1C1=C(O)CC(CC2CCOC2)CC1=O` (stereo not shown) [Compound A-3]: the pest or weed control at 500 g/ha was determined as 80% with Avena fatua (AVEFA) [1]; 80% in the test with Setaria faberi (SETFA) [2]; 80% in the test on Lolium perenne (LOLPE) [3]; 100% in test [4]; 100% in test [5]; 80% in test [6]. The pest or weed control at 500 g/ha with Avena fatua (AVEFA) [7] worked out at 90%; in the test with Setaria faberi (SETFA) [8], 100%; in the test with Lolium perenne (LOLPE) [9], 100%; in [10] it was 100%; in [11], 100%; in test [12], 80%.

For `CCc1ccc(-c2ccc(Cl)cc2)cc1C1=C(O)CC(CC2CCOC2)CC1=O` (stereo not shown) [Compound A-4], the pest or weed control at 500 g/ha in the test with Avena fatua (AVEFA) [1] stood at 70%; with Setaria faberi (SETFA) [2], 100%; in the test with Lolium perenne (LOLPE) [3], 70%; in [4] it was 100%; in [5] it was 100%; in test [6] it was 80%. Also, the pest or weed control at 500 g/ha was determined as 40% in the test with Avena fatua (AVEFA) [7]; 80% with Setaria faberi (SETFA) [8]; 30% in the test on Lolium perenne (LOLPE) [9]; 70% in test [10]; 100% in test [11]; 60% in [12].

Turning to `CCc1cc(C)cc(CC)c1C1=C(O)CC(CC2CCOCC2)CC1=O` (stereo not shown) [Compound A-5, 2-(2,6-diethyl-4-methylphenyl)-5-(tetrahydropyran-4-ylmethyl)cyclohexane-1,3-dione], the pest or weed control at 500 g/ha is 90% in the test with Avena fatua (AVEFA) [1]; 100% in the test with Setaria faberi (SETFA) [2]; 90% in the test with Lolium perenne (LOLPE) [3]; 90% in test [4]; 100% in [5]; 90% in [6]. Further, the pest or weed control at 500 g/ha (in the test with Avena fatua (AVEFA) [7]; in the test on Setaria faberi (SETFA) [8]; in the test with Lolium perenne (LOLPE) [9]; in [10]; in [11]; in test [12]) was 100% throughout.

For `CCc1cc(C)cc(CC)c1C1=C(O)CC(CC2OCCO2)CC1=O` (stereo not shown) [Compound A-6, 2-(2,6-diethyl-4-methylphenyl)-5-([1,3]dioxolan-2-ylmethyl)cyclohexane-1,3-dione], the pest or weed control at 500 g/ha came to 100% in the test with Avena fatua (AVEFA) [1]; 80% with Setaria faberi (SETFA) [2]; 80% with Lolium perenne (LOLPE) [3]; 90% in test [4]; 100% in test [5]; 80% in [6]. Also, the pest or weed control at 500 g/ha in the test with Avena fatua (AVEFA) [7] came to 60%; with Setaria faberi (SETFA) [8] it was 80%; with Lolium perenne (LOLPE) [9], 70%; in test [10], 100%; in test [11], 100%; in test [12] it was 90%.

Turning to `CCc1cc(C)cc(CC)c1C1=C(O)CC(CC2OCCCO2)CC1=O` (stereo not shown) [Compound A-7], the pest or weed control at 500 g/ha in the test on Avena fatua (AVEFA) [1] worked out at 100%; with Setaria faberi (SETFA) [2], 80%; in the test with Lolium perenne (LOLPE) [3], 90%; in test [4], 80%; in [5] it was 100%; in test [6], 90%. In addition, the pest or weed control at 500 g/ha turned out to be 100% with Avena fatua (AVEFA) [7]; 80% in the test with Setaria faberi (SETFA) [8]; 100% in the test with Lolium perenne (LOLPE) [9]; 100% in [10]; 100% in test [11]; 100% in test [12].

For the molecule `CCc1cc(C)cc(CC)c1C1=C(O)CC(CC2OCC(C)(C)CO2)CC1=O` (stereo not shown) [Compound A-8], the pest or weed control at 500 g/ha in the test with Avena fatua (AVEFA) [1] was determined as 50%; in the test with Setaria faberi (SETFA) [2], 70%; in the test with Lolium perenne (LOLPE) [3], 80%; in test [4], 70%; in [5] it was 100%; in [6], 60%. The pest or weed control at 500 g/ha in the test on Avena fatua (AVEFA) [7] was 50%; in the test with Setaria faberi (SETFA) [8], 70%; in the test with Lolium perenne (LOLPE) [9], 100%; in test [10], 100%; in test [11], 70%; in [12], 100%.

Take `Cc1cc(C)c(C2=C(O)CC(CC3CCOCC3)CC2=O)c(C)c1` (stereo not shown) [Compound A-9]: the pest or weed control at 500 g/ha came out at 70% in the test on Avena fatua (AVEFA) [1]; 80% in the test with Setaria faberi (SETFA) [2]; 80% in the test with Lolium perenne (LOLPE) [3]; 70% in test [4]; 90% in test [5]; 80% in test [6]. The pest or weed control at 500 g/ha in the test on Avena fatua (AVEFA) [7] was 60%; in the test on Setaria faberi (SETFA) [8] it was 90%; in the test on Lolium perenne (LOLPE) [9] it was 100%; in [10], 100%; in test [11], 70%; in test [12], 100%.

For `CCc1cc(CC)c(C2=C(O)CC(C(C)C3CCOCC3)CC2=O)c(CC)c1` (stereo not shown) [Compound A-12], the pest or weed control at 500 g/ha came to 80% with Avena fatua (AVEFA) [1]; 70% in the test with Setaria faberi (SETFA) [2]; 80% in the test on Lolium perenne (LOLPE) [3]; 70% in test [4]; 80% in [5]; 80% in test [6]. The pest or weed control at 500 g/ha came out at 40% in the test with Avena fatua (AVEFA) [7]; 60% with Setaria faberi (SETFA) [8]; 100% in the test with Lolium perenne (LOLPE) [9]; 70% in [10]; 70% in test [11].

For the molecule `CCc1cc(C)cc(CC)c1C1=C(O)CC(CC2CC[S+]([O-])CC2)CC1=O` (stereo not shown) [Compound A-16], the pest or weed control at 500 g/ha in the test with Avena fatua (AVEFA) [1] was 90%; in the test with Setaria faberi (SETFA) [2], 80%; with Lolium perenne (LOLPE) [3] it was 90%; in test [4], 100%; in test [5], 70%; in test [6] it was 60%. Further, the pest or weed control at 500 g/ha amounted to 90% in the test with Avena fatua (AVEFA) [7]; 100% in the test on Lolium perenne (LOLPE) [9]; 100% in test [10]; 100% in test [11]; 100% in test [12].
